Marks after values point to notes of the source that are not given here.
What was measured:
[1] = tested on: caterpillars of the cotton bollworm (Heliothis armigera); experiment: Heliothis armigera Test; format: in vivo; conditions: active compound concentration 0.00016%, after 6 days, dipped soy shoots
Method: (§1) Solvent: 7 parts by weight of dimethylformamide
(§2) Emulsifier: 1 part by weight of alkylaryl polyglycol ether
(§3) To produce a suitable preparation of active compound, 1 part by weight of active compound is mixed with the stated amount of solvent and the stated amount of emulsifier, and the concentrate is diluted with water to the desired concentration.
Soy shoots (Glycine max) are treated by being dipped into the active compound preparation of the desired concentration and are populated with caterpillars of the cotton bollworm (Heliothis armigera), while the leaves are still moist.
After the desired period of time, the activity in % is determined. 100% means that all the caterpillars have been killed; 0% means that none of the caterpillars have been killed.

[2] = tested on: larvae of the mustard beetle (Phaedon cochleariae); experiment: Phaedon Larvae Test; format: in vivo; conditions: after 7 days, dipped cabbage leaves
Method: as §1, §2, §3
After the desired period of time, the kill in % is determined. 100% means that all the beetle larvae have been killed; 0% means that none of the beetle larvae have been killed.

[3] = tested on: caterpillars of the diamond back moth (Plutella xylostella); experiment: Plutella Test; format: in vivo; conditions: active compound concentration 0.000032%, after 7 days, dipped cabbage leaves
Method: as §1, §2, §3
Cabbage leaves (Brassica oleracea) are treated by being dipped into the active compound preparation of the desired concentration and are infested with caterpillars of the diamond back moth (Plutella xylostella), while the leaves are still moist.
(§4) After the desired period of time, the activity in % is determined. 100% means that all caterpillars have been killed; 0% means that none of the caterpillars have been killed.

[4] = tested on: caterpillars of the owlet moth (Spodoptera frugiperda); experiment: Spodoptera frugiperda Test; format: in vivo; conditions: active compound concentration 0.0001%, after 7 days, dipped cabbage leaves
Method: Spodoptera frugiperda Test
as §1, §2, §3
Cabbage leaves (Brassica oleracea) are treated by being dipped into the active compound preparation of the desired concentration and populated with caterpillars of the owlet moth (Spodoptera frugiperda) while the leaves are still moist.
as §4

[5] = logP, n-octanol/water partition coefficient by reversed phase HPLC; format: physicochemical; conditions: reversed phase HPLC using H2O/CH3CN; for logP (A isomer): A isomer (possible geometric isomer); for logP (B isomer): B isomer (possible geometric isomer)
[6] = tested on: caterpillars of the owlet moth (Spodoptera exigua); experiment: Spodoptera exigua Test; format: in vivo; conditions: active compound concentration 0.000032%, after 6 days, dipped cabbage leaves
Method: as §1, §2, §3
Cabbage leaves (Brassica oleracea) are treated by being dipped into the active compound preparation of the desired concentration and populated with caterpillars of the owlet moth (Spodoptera exigua), while the leaves are still moist.
as §4

[7] = tested on: greenhouse red spider mite (Tetranychus urticae); experiment: Tetranychus Test (OP resistant/spray treatment); format: in vivo; conditions: active compound concentration 0.000032%, after 14 days, sprayed bean plants
Method: Tetranychus Test (OP resistant/spray treatment)
Solvent: 3 parts by weight of dimethylformamide
as §2, §3
Bean plants (Phaseolus vulgaris) which are heavily infested by all stages of the greenhouse red spider mite (Tetranychus urticae) are sprayed with an active compound preparation of the desired concentration.
After the desired period of time, the activity in % is determined. 100% means that all the spider mites have been killed; 0% means that none of the spider mites have been killed.

[8] = tested on: Lucilia cuprina larvae; experiment: Blowfly Larvae Test/development-inhibitory Action; format: in vivo; conditions: active compound concentration 100 ppm
Method: Blowfly Larvae Test/development-inhibitory Action
Test animals: Lucilia cuprina larvae
Solvent: Dimethyl sulphoxide
20 m of active compound are dissolved in 1 ml of dimethyl sulphoxide, and lower concentrations are prepared by dilution with distilled H2O .
About 20 Lucilia cuprina larvae are placed in a test tube containing about 1 cm^3 of horsemeat and 0.5 ml of the active compound preparation to be tested. The activity of the active compound preparation is determined after 24 hours and 48 hours. The test tubes are transferred into beakers whose bottom is covered with sand. After a further 2 days, the test tubes are removed and the pupae are counted.
The activity of the active compound preparation is judged by the number of flies which have hatched after 1.5 times the development period of an untreated control. 100% means that no flies have hatched; 0% means that all flies have hatched normally.

[9] = active compound concentration 0.01%

| Structure (SMILES) | logP (A isomer) [5] | logP (B isomer) [5] | logP [5] | further results |
| --- | --- | --- | --- | --- |
| CCC(C)ON=C(C)COc1ccc(-c2ccc(C3COC(c4c(F)cccc4Cl)=N3)cc2)cc1 (mixture of isomers) [Example 3] | 5.90 (A isomer)* | 5.81 (B isomer)* | – | kill [1]: 100%; kill [2, 9]: 100%; kill [3]: 100%; kill [4]: 100% |
| CON=CCOc1ccc(-c2ccc(C3COC(c4c(F)cccc4F)=N3)cc2)cc1 (mixture of isomers) [Example 8] | 3.97 (A isomer)* | 4.14 (B isomer)* | – | – |
| CCON=CCOc1ccc(-c2ccc(C3COC(c4c(F)cccc4F)=N3)cc2)cc1 (mixture of isomers) [Example 16] | 4.35 (A isomer)* | 4.53 (B isomer)* | – | – |
| CCON=C(COc1ccc(-c2ccc(C3COC(c4c(F)cccc4F)=N3)cc2)cc1)C(C)(C)C=C(Cl)Cl (mixture of isomers) [Example 42] | 6.48 | 6.37 | – | – |
| CCCCON=C(C)C(C)Oc1ccc(-c2ccc(C3COC(c4c(F)cccc4Cl)=N3)cc2)cc1 (mixture of isomers) [Example 49] | 6.23 | 6.09 | – | – |
| CC(=NOCC(C)C)C(C)Oc1ccc(-c2ccc(C3COC(c4c(F)cccc4F)=N3)cc2)cc1 (mixture of isomers) [Example 51] | 5.93 | 5.79 | – | – |
| CCCCON=C(C)C(C)Oc1ccc(-c2ccc(C3COC(c4c(F)cccc4F)=N3)cc2)cc1 (mixture of isomers) [Example 52] | 5.94 | 5.80 | – | – |
| CC(COc1ccc(-c2ccc(C3COC(c4c(F)cccc4Cl)=N3)cc2)cc1)=NOCC(C)C (mixture of isomers) [Example 54] | 5.85 | 5.76 | – | – |
| CCCCON=C(C)COc1ccc(-c2ccc(C3COC(c4c(F)cccc4F)=N3)cc2)cc1 (mixture of isomers) [Example 55] | 5.58 | 5.51 | – | – |
| CCC(C)ON=C(C)COc1ccc(-c2ccc(C3COC(c4c(F)cccc4F)=N3)cc2)cc1 (mixture of isomers) [Example 56] | 5.61 | 5.54 | – | – |
| CCCCON=C(C)C(C)Oc1ccc(-c2ccc(C3COC(c4ccccc4Cl)=N3)cc2)cc1Cl (mixture of isomers) [Example 61] | 6.84 | 6.67 | – | – |
| CCCCON=C(C)C(C)Oc1ccc(-c2ccc(C3COC(c4c(F)cccc4F)=N3)cc2)cc1Cl (mixture of isomers) [Example 63] | 6.37 | 6.22 | – | – |
| CON=C(C)C(C)Oc1ccc(-c2ccc(C3COC(c4ccccc4Br)=N3)cc2)cc1 (mixture of isomers) [Example 92] | 5.08 | 5.18 | – | – |
| Fc1cccc(F)c1C1=NC(c2ccc(-c3ccc(OCc4ccc(C(F)(F)F)cc4)cc3)cc2)CO1 (centres unmarked) [Example 1, 2-(2,6-difluorophenyl)-4-[4′-(4″-trifluoromethylbenzyl-oxy)-biphenyl-4-yl]-1,3-oxazoline] | – | – | – | kill [1]: 100%; kill [2, 9]: 100%; kill [3]: 85%; kill [6]: 80%; kill [4]: 100%; kill [7]: 98% |
| CC(=NOC(C)C)C(C)(C)Oc1ccc(-c2ccc(C3COC(c4c(F)cccc4Cl)=N3)cc2)cc1 (centres unmarked) [Example 4] | – | – | 6.30 | kill ([2]; active compound concentration 0.00001%): 100%; kill [4]: 100% |
| CC(C)Oc1ccc(-c2ccc(C3COC(c4ccccc4Br)=N3)cc2)cc1 (centres unmarked) [Example 5] | – | – | – | activity (development-inhibitory action, flies not hatched) [8]: 100% |
| ClC1(Cl)CC1COc1ccc(-c2ccc(C3COC(c4ccccc4I)=N3)cc2)cc1 (centres unmarked) [Example 22] | – | – | 5.43 | – |
| C#CC(C)Oc1ccc(-c2ccc(C3COC(c4c(F)cccc4F)=N3)cc2)cc1 (centres unmarked) [Example 36] | – | – | 4.15 | – |

| Structure (SMILES) | logP (A isomer) [5] | logP (B isomer) [5] | logP [5] | further results |
| --- | --- | --- | --- | --- |
| C#CC(C)Oc1ccc(-c2ccc(C3COC(c4ccccc4Cl)=N3)cc2)cc1 (centres unmarked) [Example 37] | – | – | 4.49 | – |
| CCON=CC(C)(C)Oc1ccc(-c2ccc(C3COC(c4c(F)cccc4F)=N3)cc2)cc1 (centres unmarked) [Example 53] | – | – | 5.00 | – |
| CON=CC(C)(C)Oc1ccc(-c2ccc(C3COC(c4c(F)cccc4F)=N3)cc2)cc1 (centres unmarked) [Example 57] | – | – | 4.62 | – |
| CC(=O)C(C)Oc1ccc(-c2ccc(C3COC(c4ccccc4Br)=N3)cc2)cc1 (centres unmarked) [Example 68] | – | – | 4.13 | – |
| CC(O)C(C)Oc1ccc(-c2ccc(C3COC(c4ccccc4Br)=N3)cc2)cc1 (centres unmarked) [Example 91] | – | – | 3.74 | – |
| CC(=O)C(C)Oc1ccc(-c2ccc(C3COC(c4ccccc4F)=N3)cc2)cc1 (centres unmarked) [Example 100] | – | – | 3.79 | – |
| CC(C)(C=O)Oc1ccc(-c2ccc(C3COC(c4c(F)cccc4F)=N3)cc2)cc1 (centres unmarked) [Example 102] | – | – | 4.08 | – |
| CC(C)Oc1ccc(-c2ccc(C3COC(c4ccccc4F)=N3)cc2)cc1 (centres unmarked) [Example 107] | – | – | 4.65 | – |
| CC(C)COc1ccc(-c2ccc(C3COC(c4ccccc4F)=N3)cc2)cc1 (centres unmarked) [Example 108] | – | – | 5.34 | – |
| CON=CCOc1ccc(-c2ccc(C3COC(c4c(F)cccc4Cl)=N3)cc2)cc1 (centres unmarked) [Example 112] | – | – | 4.27 | – |
| CCON=CCOc1ccc(-c2ccc(C3COC(c4c(F)cccc4Cl)=N3)cc2)cc1 (centres unmarked) [Example 113] | – | – | 4.65 | – |
| CON=CCOc1ccc(-c2ccc(C3COC(c4c(F)cccc4F)=N3)cc2)cc1Cl (centres unmarked) [Example 114] | – | – | 4.33 | – |
| CCON=CCOc1ccc(-c2ccc(C3COC(c4c(F)cccc4F)=N3)cc2)cc1Cl (centres unmarked) [Example 115] | – | – | 4.71 | – |
| CON=CCOc1ccc(-c2ccc(C3COC(c4ccccc4Cl)=N3)cc2)cc1Cl (centres unmarked) [Example 116] | – | – | 4.72 | – |
| CCON=CCOc1ccc(-c2ccc(C3COC(c4ccccc4Cl)=N3)cc2)cc1Cl (centres unmarked) [Example 117] | – | – | 5.08 | – |
| Cc1cc(-c2ccc(C3COC(c4c(F)cccc4F)=N3)cc2)ccc1OCC(F)(F)F (centres unmarked) [Example 119] | – | – | 4.80 | – |
| Cc1cc(-c2ccc(C3COC(c4c(F)cccc4OCC(F)(F)F)=N3)cc2)ccc1OCC(F)(F)F (centres unmarked) [Example 120] | – | – | 4.91 | – |

Source: US6414000B1, “Substituted diphenyl oxazolin derivatives with insecticidal effect” (Bayer Aktiengesellschaft, priority 1997, dated 2002)
